Test [1] addresses T1, human Cot catalytic domain (30-397 amino acids) (Homo sapiens, UniProt P41279).
T1 construct: Purified recombinant human Cot catalytic domain (30-397 amino acids) was purchased from Cama Biosciences; purchased Cama Biosciences (so in the source)
The experiment in a line: High Throughput Cot Biochemical Assay (KinEASE TR-FRET). Particulars: read-out: IC50 HTRF. The gist of the method:
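Phosphorylation of 1 μM XL665-STK3 peptide by 5 nM Cot catalytic domain was measured by time-resolved FRET using a europium […] antibody. ATP was 400 μM; buffer was 10 mM MOPS pH 7.0 with Mg2+ and DTT.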
In general terms: Time-resolved FRET reads energy transfer from a long-lived donor to a nearby acceptor.

In test [2] the test system is TNFα production in LPS-stimulated human monocytes. In words: Cot Monocyte TNFα Cell Based Assay. Particulars: Homo sapiens, Monocyte, read-out: EC50 TNF. The gist of the method: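 Percent-of-control values derive from TR-FRET ratios of TNFα in spun-down media, referenced to unstimulated and LPS-stimulated wells. Exposure: 1 h compound preincubation, then 50 pg/ml LPS for 4 h, both at 37 °C, with 0.5% final DMSO.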

The mark [3] stands for this setting: Cot biochemical HTRF (KinEASE TR-FRET) assay.
Where [4] appears, read: TNFα in LPS-stimulated human monocytes.
Where [5] appears, read: Cot KinEASE TR-FRET, 400 μM ATP.
Where [6] appears, read: LPS-stimulated human monocytes, TNFα TR-FRET.
Where [7] appears, read: Cot KinEASE TR-FRET (HTRF) biochemical assay, 400 μM ATP.

Like-named read-outs stand apart in the source and are kept apart here.

T1 sequence (P41279 30-397): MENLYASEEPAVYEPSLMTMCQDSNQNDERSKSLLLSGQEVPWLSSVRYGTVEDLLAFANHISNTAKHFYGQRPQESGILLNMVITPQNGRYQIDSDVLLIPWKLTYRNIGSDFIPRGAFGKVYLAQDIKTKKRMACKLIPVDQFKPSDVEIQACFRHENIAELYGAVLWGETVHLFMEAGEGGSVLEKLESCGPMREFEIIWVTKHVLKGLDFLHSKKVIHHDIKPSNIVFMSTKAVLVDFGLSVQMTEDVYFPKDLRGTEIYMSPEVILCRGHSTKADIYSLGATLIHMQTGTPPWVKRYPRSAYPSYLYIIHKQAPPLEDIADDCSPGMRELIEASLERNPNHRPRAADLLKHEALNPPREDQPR

On to `COc1ccccc1CNc1c(C#N)cnc2c(Cl)cc(N[C@@H](c3ccc(F)cc3)c3cn(C4CCN(C(C)(C)C)CC4)nn3)cc12` [Example 442, (S)-6-(((1-(1-(tert-butyl)piperidin-4-yl)-1H-1,2,3-triazol-4-yl)(4-fluorophenyl)methyl)amino)-8-chloro-4-((2-methoxybenzyl)amino) quinoline-3-carbonitrile], for which the IC50 (as a rule, the concentration that gives 50% inhibition) in test [1] (setting [3]) turned out to be 193 nM. Further, in test [2] (setting [4]), the EC50 (commonly the concentration needed to bring the measured effect to its halfway point) is 4900 nM.

Turning to `CC1(CNc2c(C#N)cnc3c(Cl)cc(N[C@@H](c4ccccc4)c4cn(C5CCN(C(C)(C)C)CC5)nn4)cc23)COC1` [Example 452, (S)-6-(((1-(1-(tert-butyl)piperidin-4-yl)-1H-1,2,3-triazol-4-yl)(phenyl)methyl)amino)-8-chloro-4-(((3-methyloxetan-3-yl)methyl)amino)quinoline-3-carbonitrile], the IC50 in test [1] (setting [3]) is 98 nM. Moreover, the EC50 in test [2] (setting [4]) was 420 nM.

For the compound `[2H][C@@](Nc1cc(Cl)c2ncc(C#N)c(NCC(C)(C)C)c2c1)(c1cn(C2(c3cccnc3)CC2)nn1)c1ccccc1Cl` [Example 960, 8-chloro-6-(((2-chlorophenyl)(1-(1-(pyridin-3-yl)cyclopropyl)-1H-1,2,3-triazol-4-yl)methyl-d)amino)-4-(neopentylamino)quinoline-3-carbonitrile], the IC50 in test [1] (setting [5]) turned out to be 12 nM. Moreover, the EC50 in test [2] (setting [6]) was determined as 86 nM.

Take `Cc1c(-c2cn[nH]c2)cccc1[C@H](Nc1cc(Cl)c2ncc(C#N)c(NCC(C)(C)C)c2c1)c1cn(C2(C(F)F)CC2)nn1` [Example 1166, (S)-8-chloro-6-(((1-(1-(difluoromethyl)cyclopropyl)-1H-1,2,3-triazol-4-yl) (2-methyl-3-(1H-pyrazol-4-yl)phenyl)methyl)amino)-4-(neopentylamino)quinoline-3-carbonitrile]: the IC50 in test [1] (setting [5]) stood at 5 nM. Moreover, the EC50 in test [2] (setting [6]) amounted to 47 nM.

As to `[2H]C(Nc1cc(Cl)c2ncc(C#N)c(NCC(C)(C)C)c2c1)(c1cn(C2(C)CC2)nn1)c1ccccc1Cl` (stereo not drawn) [Example 107, 8-chloro-6-(((2-chlorophenyl)(1-(1-methylcyclopropyl)-1H-1,2,3-triazol-4-yl)methyl-d)amino)-4-(neopentylamino) quinoline-3-carbonitrile], the half-maximal inhibitory concentration (IC50) in test [1] (setting [7]) came to 14 nM. In addition, the EC50 in test [2] (setting [4]) turned out to be 272 nM.

For `[2H][C@](Nc1cc(Cl)c2ncc(C#N)c(N[C@H](CC#N)C(C)(C)C)c2c1)(c1ccc(F)cc1)c1cn(C2CC2)nn1` [Example 247, 8-chloro-4-(((R)-1-cyano-3,3-dimethylbutan-2-yl)amino)-6-(((S)-(1-cyclopropyl-1H-1,2,3-triazol-4-yl)(4-fluorophenyl)methyl-d)amino)quinoline-3-carbonitrile], in test [1] (setting [7]), the IC50 worked out at 28 nM. Besides, in test [2] (setting [4]), the EC50 worked out at 635 nM.

Take `N#Cc1cnc2c(Cl)cc(N[C@@H](c3ccc(F)cc3)c3c[nH]nn3)cc2c1N[C@@H](CCO)c1ccccc1` [Example 432, 8-chloro-6-(((S)-(4-fluorophenyl)(1H-1,2,3-triazol-4-yl)methyl)amino)-4-(((S)-3-hydroxy-1-phenylpropyl)amino)quinoline-3-carbonitrile]: the IC50 in test [1] (setting [3]) came out at 624 nM. Also, the EC50 in test [2] (setting [4]) was 3930 nM.

`CC(C)(C)N1CCC(n2cc([C@@H](Nc3cc(Cl)c4ncc(C#N)c(Nc5cc(F)cc(F)c5)c4c3)c3ccc(Cl)cc3)nn2)CC1` [Example 764, (S)-6-(((1-(1-(tert-butyl)piperidin-4-yl)-1H-1,2,3-triazol-4-yl)(4-chlorophenyl)methyl)amino)-8-chloro-4-((3,5-difluorophenyl)amino)quinoline-3-carbonitrile]: the IC50 in test [1] (setting [3]) worked out at 38 nM. Also, the EC50 in test [2] (setting [4]) came out at 3270 nM.

For the compound `N#Cc1cnc2c(Cl)cc(N[C@@H](c3ccccc3)c3cn(CCN)nn3)cc2c1Nc1ccc(F)c(Cl)c1` [Example 796, (S)-6-(((1-(2-aminoethyl)-1H-1,2,3-triazol-4-yl)(phenyl)methyl)amino)-8-chloro-4-((3-chloro-4-fluorophenyl)amino)quinoline-3-carbonitrile], the IC50 in test [1] (setting [3]) stood at 2 nM. In test [2] (setting [4]), the EC50 came out at 200 nM.

On to `CC(C)(C)N1CCC(n2cc([C@@H](Nc3cc(Cl)c4ncc(C#N)c(Nc5ccc(C(F)(F)F)nc5)c4c3)c3ccc(Cl)cc3)nn2)CC1` [Example 750, (S)-6-(((1-(1-(tert-butyl)piperidin-4-yl)-1H-1,2,3-triazol-4-yl)(4-chlorophenyl)methyl)amino)-8-chloro-4-((6-(trifluoromethyl)pyridin-3-yl)amino)quinoline-3-carbonitrile], for which the 50% inhibitory concentration (IC50) in test [1] (setting [3]) stood at 1890 nM. Besides, the EC50 in test [2] (setting [4]) worked out at 4720 nM.

As for `C[C@H](Nc1c(C#N)cnc2c(Cl)cc(N[C@@H](c3ccccc3)c3cn(C4CCN(C(C)(C)C)CC4)nn3)cc12)C1CCOCC1` [Example 522, 6-(((S)-(1-(1-(tert-butyl)piperidin-4-yl)-1H-1,2,3-triazol-4-yl)(phenyl)methyl)amino)-8-chloro-4-(((S)-1-(tetrahydro-2H-pyran-4-yl)ethyl)amino)quinoline-3-carbonitrile], the IC50 in test [1] (setting [3]) is 786 nM. Moreover, in test [2] (setting [4]), the EC50 was determined as 9720 nM.

As for `N#Cc1cnc2c(Cl)cc(N[C@@H](c3ccc(F)cc3)c3c[nH]nn3)cc2c1NCC(F)(F)F` [Example 443, (S)-8-chloro-6-(((4-fluorophenyl)(1H-1,2,3-triazol-4-yl)methyl)amino)-4-((2,2,2-trifluoroethyl)amino) quinoline-3-carbonitrile], the IC50 in test [1] (setting [3]) turned out to be 2700 nM. In addition, the EC50 in test [2] (setting [4]) was over 10000 nM.

`N#Cc1cnc2c(Cl)cc(N[C@H](c3c[nH]nn3)c3c(F)cc(F)cc3F)cc2c1Nc1cnc(F)c(F)c1` [Example 503, (S)-6-(((1H-1,2,3-triazol-4-yl)(2,4,6-trifluorophenyl)methyl)amino)-8-chloro-4-((5,6-difluoropyridin-3-yl)amino)quinoline-3-carbonitrile]: the IC50 in test [1] (setting [3]) came out at 98 nM. In addition, the EC50 in test [2] (setting [4]) came to 1690 nM.

As for `[2H][C@](Nc1cc(Cl)c2ncc(C#N)c(NCC(C)(C)COC)c2c1)(c1ccc(F)cc1)c1cn(C2CC2)nn1` [Example 225, (S)-8-chloro-6-(((1-cyclopropyl-1H-1,2,3-triazol-4-yl)(4-fluorophenyl)methyl-d)amino)-4-((3-methoxy-2,2-dimethylpropyl)amino) quinoline-3-carbonitrile], in test [1] (setting [7]), the IC50 is 38 nM. For the same compound, the EC50 in test [2] (setting [4]) was determined as 800 nM.

`N#Cc1cnc2c(F)cc(N[C@@H](c3ccc(Cl)cc3)c3cn(C4CCNCC4)nn3)cc2c1Nc1ccc(F)c(Cl)c1` [Example 814, (S)-4-((3-chloro-4-fluorophenyl)amino)-6-(((4-chlorophenyl)(1-(piperidin-4-yl)-1H-1,2,3-triazol-4-yl)methyl)amino)-8-fluoroquinoline-3-carbonitrile]: the IC50 in test [1] (setting [3]) amounted to 10 nM. In addition, in test [2] (setting [4]), the EC50 came out at 704 nM.

Take `N#Cc1cnc2c(Cl)cc(N[C@@H](c3ccc(F)cc3)c3cnn(C(F)F)n3)cc2c1Nc1cnc(F)c(F)c1` [Example 378, (S)-8-chloro-6-(((2-(difluoromethyl)-2H-1,2,3-triazol-4-yl)(4-fluorophenyl)methyl)amino)-4-((5,6-difluoropyridin-3-yl)amino)quinoline-3-carbonitrile]: the IC50 in test [1] (setting [7]) was over 10000 nM. In addition, the EC50 in test [2] (setting [4]) is over 10000 nM.

With `N#Cc1cnc2c(Cl)cc(N[C@@H](c3ccc(F)cc3)c3c[nH]nn3)cc2c1NC1CCCC(O)C1` (stereo partly drawn) [Example 438, 8-chloro-6-(((S)-(4-fluorophenyl)(1H-1,2,3-triazol-4-yl)methyl)amino)-4-((3-hydroxycyclohexyl)amino) quinoline-3-carbonitrile], the IC50 in test [1] (setting [3]) was found to be 135 nM. Also, the concentration for a half-maximal effect (EC50) in test [2] (setting [4]) was 5130 nM.

For the compound `CC(C)(C)N1CCC(n2cc([C@@H](Nc3cc(Cl)c4ncc(C#N)c(Nc5ccc(F)c(Cl)c5)c4c3)c3cccc(C(=O)O)c3)nn2)CC1` [Compound 19], the IC50 in test [1] (setting [7]) came out at 5 nM. Also, the EC50 in test [2] (setting [4]) was found to be 18000 nM.

In the case of `C[C@@H](CNc1c(C#N)cnc2c(Cl)cc(N[C@@H](c3ccc(Cl)cc3)c3cn(C4CCN(C(C)(C)C)CC4)nn3)cc12)c1ccccc1` [Example 659, 6-(((S)-(1-(1-(tert-butyl)piperidin-4-yl)-1H-1,2,3-triazol-4-yl)(4-chlorophenyl)methyl)amino)-8-chloro-4-(((R)-2-phenylpropyl)amino)quinoline-3-carbonitrile], in test [1] (setting [3]), the IC50 came to 95 nM. Moreover, the concentration for a half-maximal effect (EC50) in test [2] (setting [4]) was found to be 5350 nM.

In the case of `[2H][C@](Nc1cc(Cl)c2ncc(C#N)c(NC[Si](C)(C)C)c2c1)(c1ccc(F)cc1)c1cn(C2CC2)nn1` [Example 262, (S)-8-chloro-6-(((1-cyclopropyl-1H-1,2,3-triazol-4-yl)(4-fluorophenyl)methyl-d)amino)-4-(((trimethylsilyl)methyl)amino) quinoline-3-carbonitrile], in test [1] (setting [7]), the IC50 amounted to 10 nM. For the same compound, in test [2], the EC50 was 259 nM.

For `[2H][C@](Nc1cc(Cl)c2ncc(C#N)c(NCC(C)(C)C)c2c1)(c1cccc(C#N)c1)c1cn(C(C)(C)C)nn1` [Example 233, (S)-6-(((1-(tert-butyl)-1H-1,2,3-triazol-4-yl)(3-cyanophenyl)methyl-d)amino)-8-chloro-4-(neopentylamino)quinoline-3-carbonitrile], in test [1] (setting [7]), the IC50 was 5 nM. In addition, the EC50 in test [2] (setting [4]) stood at 259 nM.

These data come from patent US10316017B2, “COT modulators and methods of use thereof” (Gilead Sciences, Inc., priority 2015, dated 2019).
